Patent publication US7655420B2, “Methods to increase or decrease bone density” (Celltech R & D, Inc., priority 2002, dated 2010)
Entries after “also recorded” stand apart in the source; their conditions may differ.

Key:
SOST expression [1] = assay: SOST expression in hMSC cells and primary human osteoblasts treated with growth factors and hormones (RT-PCR); assay type: cell-based; conditions: 72 hrs; for SOST expression, factor alone: hMSC cells (and primary human osteoblasts), RT-PCR; for SOST expression, steroid added in combination with BMP-4 versus BMP-4 alone: hMSC cells, vit D 10^−7M, RA 10^−6M, DEX 10^−7M
Method: (§1) As immature osteoblasts differentiate and become capable of mineralization, they express markers associated with the osteoblast phenotype (type I collagen and parathyroid hormone receptor (PTHr)). These markers were used to ascertain whether differentiation had occurred so that the influence of growth factors and hormones could be correlated with the stage differentiation as well as the level of SOST expression.
(§2) Human mesenchymal cells and primary human osteoblasts were plated in regular growth media containing 2% FCS at a density of 10,000 cells 1 cm^2. Test reagents (10^−7 M dexamethasone, 10^−6 M retinoic acid, 10 ng/ml TGF-β1, PTH (10^−8 M), 10 or 50 ng/ml IGF-1, 10^−7 M1,25-dihydroxyvitamin D3, and 50 to 300 ng/ml of bone morphogenetic proteins 2, 4 or 6) were added singly or in combination on the following day.

SOST expression [2] = assay: BMP-6 induction of SOST expression in hMSC cells with test compounds (RT-PCR); assay type: cell-based, human; conditions: for Results (effect on BMP-6 induction of SOST expression): BMP-6, 72 hrs, compound at 1 × 10^−7 M
Method: The previous example illustrates that SOST expression was enhanced by bone morphogenetic proteins and modulated by steroids such as dexamethasone. In this example, human MSC cells were incubated with bone morphogenetic proteins in the presence of various test agents to determine whether other steroids and compounds could affect the BMP-induction of SOST. SOST expression was monitored by reverse transcriptase polymerase chain reaction (RT-PCR).
Human mesenchymal cells (hMSCs) were plated in regular growth media containing 2% FCS and treated with BMP-6 either alone or in combination with the test compounds. The cells were harvested 72 hrs later and RNA was prepared for RT-PCR analysis of SOST expression.

noggin expression = noggin expression in hMSC cells treated with BMPs and steroids (RT-PCR); assay type: cell-based, human; conditions: 72 hrs
Method: as §1, §2

gremlin expression = gremlin expression in hMSC cells treated with BMPs and steroids (RT-PCR); assay type: cell-based, human; conditions: 72 hrs; for BMP-4 induced gremlin expression, steroid added with BMP-4: BMP-4 100 ng/ml; for gremlin expression, factor alone: RT-PCR
Method: as §1, §2

PTHr expression = PTHr expression in hMSC cells treated with factors (RT-PCR); assay type: cell-based, human; conditions: 72 hrs, IGF-1 at 50 ng/ml, DEX 10^−7M
Text: In this example, the effect of growth factors and hormones on SOST expression in hMSC cells or primary human osteoblasts was observed using RT-PCR. […] As immature osteoblasts differentiate and become capable of mineralization, they express markers associated with the osteoblast phenotype (type I collagen and parathyroid hormone receptor (PTHr)). These markers were used to ascertain whether differentiation had occurred so that the influence of growth factors and hormones could be correlated with the stage differentiation as well as the level of SOST expression.
Human mesenchymal cells and primary human osteoblasts were plated in regular growth media containing 2% FCS at a density of 10,000 cells 1 cm^2. Test reagents (10^−7 M dexamethasone, 10^−6 M retinoic acid, 10 ng/ml TGF-β1, PTH (10^−8 M), 10 or 50 ng/ml IGF-1, 10^−7 M1,25-dihydroxyvitamin D3, and 50 to 300 ng/ml of bone morphogenetic proteins 2, 4 or 6) were added singly or in combination on the following day. Cultures were continued for 24 to 120 hrs after which the cells were harvested for RNA isolation.

[3] = test system: caspase activity in hMSC cells; assay: apoptosis of hMSC cells by caspase activity (Homogeneous Caspase ELISA); assay type: cell-based, human; conditions: for apoptosis of hMSC cells (caspase activity), rat versus human sclerostin: 24 hrs
Method: Human mesenchymal (hMSC) cells were plated in Osteoblast-inducing media (Biowhittaker's MSCGM medium supplemented with 100 nM dexamethasone, 50 μg/ml ascorbic acid, and 10 mM β-glycerophosphate) at a density of 10,000 cells/cm^2 in 96-well dishes.
For apoptosis assays, cells were treated with sclerostin or commercially available preparations of the BMP antagonists noggin, chordin, gremlin or twisted gastrulation (Tsg) for 24 hours prior to assay for caspase activity. In some experiments, cells were treated for various times with a partially purified preparation of baculovirus-expressed human sclerostin (0 to 30 μg/ml) or an equal volume of a protein preparation purified from Sf9 conditioned media (control) in the absence or presence of Calbiochem's caspase inhibitors. Cells were harvested and processed for apoptosis assays using the Homogeneous Caspase ELISA (Roche) or Cell Death (Histone-Associated DNA Fragmentation, Roche).

[4] = test system: BMP-6 stimulated alkaline phosphatase activity; assay: BMP-6 stimulated alkaline phosphatase activity in mouse mesenchymal C3H10T1/2 cells; assay type: cell-based
Method: C3H10T1/2 cells (ATCC Deposit No. CCL-226) were plated in 96-well dishes at a density of 25,000 cells per well in complete growth medium (DMEM with high glucose and glutamine supplemented with 10% FCS, 1% penicillin/streptomycin, 0.1 mM non-essential amino acids, 1 mM sodium pyruvate, 55 μM β-mercaptoethanol, and 20 mM HEPES, pH 7.3). C3H10T1/2 cells were used in a short-term (72 hr) assay to determine the effects of human sclerostin protein on BMP-induced ALP activity. Partially purified preparations of bacculovirus-expressed sclerostin protein were prepared in sterile PBS using NAP-5 columns prior to use. Sclerostin protein (0 to 50 μg/ml) or an equal volume of Sf9 conditioned media (control) was pre-incubated with 500 ng/ml BMP-6 for 1 hr prior to addition to cells. For comparison, similar incubations were carried out with anti-BMP-6 antibody and noggin. Cells were harvested 72 hrs later for determination of ALP activity.
To test the specificity of the sclerostin effect, human sclerostin that was synthesized with a FLAG tag, was pre-incubated for 2 hrs at 4° C. with an anti-FLAG antibody coupled to agarose beads. The mixture was then spun down at 10,000×g for 15 minutes at 4° C. and the supernatant treated as “sclerostin protein” in the above assay.

[5] = test system: alkaline phosphatase (ALP) activity in hMSC cells; assay: alkaline phosphatase activity in differentiating hMSC cells; assay type: cell-based, human; conditions: hMSC cells, Osteoblast-Inducing media, 7 days
Method: hMSC cells were plated in 96-well tissue culture dishes at a density of 10,000 cells/cm^2 in Osteoblast-Inducing medium. Partially purified preparations of baculovirus-expressed sclerostin protein were prepared in sterile PBS using NAP-5 columns prior to use. Human sclerostin protein (0 to 30 μg/ml) or an equal volume of Sf9 conditioned media (Control) was added to cultures of hMSC cells at various times after plating (1 day, 8 days, 15 days, or 21 days). The effects of sclerostin on osteoblastic differentiation were assessed by measuring alkaline phosphatase activity (ALP, determined in cell layers using DEAA buffer (Pierce) containing 0.5% NP-40 and 10 mM p-nitrophenylphosphate), synthesis of collagen type I (Prolagen C ELISA), and calcium deposition for mineralization (colorimetric assay of acid lysates of cell layers, Sigma).

[6] = test system: alkaline phosphatase (ALP) activity in hMSC cells; assay: as above; assay type: cell-based, human; conditions: sclerostin 10 μg/ml and increasing amounts of BMP-6

## CC1=C(/C=C/C(C)=C/C=C/C(C)=C/C(=O)O)C(C)(C)CCC1 [retinoic acid, reference compound]
SOST expression [1]
  SOST expression, factor alone: no effect

## C[C@@H]1C[C@H]2[C@@H]3CCC4=CC(=O)C=C[C@]4(C)[C@@]3(F)[C@@H](O)C[C@]2(C)[C@@]1(O)C(=O)CO [Dexamethasone, dexamethasone, reference compound]
SOST expression [2]; 72 hrs, no single concentration stated in the sentence
  induction of SOST expression by BMP-6 (BMP-induced SOST expression): blocks
SOST expression [2]
  Results (effect on BMP-6 induction of SOST expression): blocked; also recorded: Inhibition
SOST expression [2]; listed as DEX
  Results (effect on BMP-6 induction of SOST expression): blocked
Noggin expression
  noggin expression, factor alone: increase
Gremlin expression
  BMP-4 induced gremlin expression, steroid added with BMP-4: diminished
  gremlin expression, factor alone: decreased
SOST expression [1]
  SOST expression, factor alone: no effect
  SOST expression, steroid added in combination with BMP-4 versus BMP-4 alone: abolished the stimulatory effect
SOST expression [1]; listed as dexamethasone
  SOST expression, steroid added in combination with BMP-4 versus BMP-4 alone: abolished the stimulatory effect; also recorded: significantly suppressed; also recorded: depressed
PTHr expression
  PTHr expression: induced

## TGF-β: transforming growth factor-β
SOST expression [1]
  SOST expression, factor alone: no effect

## C=C1/C(=C\C=C2/CCC[C@]3(C)[C@@H]([C@H](C)CCCC(C)(C)O)CC[C@@H]23)C[C@@H](O)C[C@@H]1O [vitamin D, 1,25-dihydroxyvitamin D3, reference compound]
Noggin expression
  noggin expression, factor alone: increase
Gremlin expression
  BMP-4 induced gremlin expression, steroid added with BMP-4: did not alter
  gremlin expression, factor alone: unchanged
SOST expression [1]
  SOST expression, factor alone: no effect
  SOST expression, steroid added in combination with BMP-4 versus BMP-4 alone: enhanced

## IGF-1: insulin-like growth factor-1
SOST expression [1]
  SOST expression, factor alone: enhanced
PTHr expression
  PTHr expression: induced

B1: rat sclerostin: rat sclerostin protein (SEQ ID NO:8) (protein, listed as Rattus norvegicus)
chain: MQLSLAPCLACLLVHAAFVAVESQGWQAFKNDATEIIPGLREYPEPPQELENNQTMNRAENGGRPPHHPYDTKDVSEYSCRELHYTRFVTDGPCRSAKPVTELVCSGQCGPARLLPNAIGRVKWWRPNGPDFRCIPDRYRAQRVQLLCPGGAAPRSRKVRLVASCKCKRLTRFHNQSELKDFGPETARPQKGRKPRPRARGAKANQAELENAY
[3]
  apoptosis of hMSC cells (caspase activity), rat versus human sclerostin: induced the apoptosis
[3]; listed as Rat sclerostin
  apoptosis of hMSC cells (caspase activity), rat versus human sclerostin: increased the apoptosis of hMSC cells but to a lesser extent

B2: noggin: BMP antagonist protein (mouse noggin), purchased from R & D Systems (protein)
chain: QHYLHIRPAPSDNLPLVDLIEHPDPIFDPKEKDLNETLLRSLLGGHYDPGFMATSPPEDRPGGGGGPAGGAEDLAELDQLLRQRPSGAMPSEIKGLEFSEGLAQGKKQRLSKKLRRKLQMWLWSQTFCPVLYAWNDLGSRFWPRYVKVGSCFSKRSCSVPEGMVCKPSKSVHLTVLRWRCQRRGGQRCGWIPIQYPIISECKCSC
[3]; hMSC in osteoblast-inducing media, 20 μg/ml sclerostin or other protein, 24 hours
  caspase activity: no increase; also recorded: no significant effect
[4]; 500 ng/ml BMP-6, 72 hrs
  stimulatory effect of BMP-6 on alkaline phosphatase activity (antagonism): antagonized
[4]; pre-incubated with 500 ng/ml BMP-6 for 1 hr, 72 hrs
  IC50, decrease of BMP-6 stimulated alkaline phosphatase activity: 0.3 µg/mL
[5]; protein at 1 μg/ml
  ALP activity: no effect
[5]; protein at 5 μg/ml
  ALP activity: significantly increased

B3: BMP-6: bone morphogenetic protein 6, purchased from R & D Systems (protein)
chain: QQSRNRSTQSQDVARVSSASDYNSSELKTACRKHELYVSFQDLGWQDWIIAPKGYAANYCDGECSFPLNAHMNATNHAIVQTLVHLMNPEYVPKPCCAPTKLNAISVLYFDDNSNVILKKYRNMVVRACGCH
[4]; 72 hrs
  ALP activity, effect of BMP-6: increased in a dose-dependent manner; also recorded: stimulatory effect
Noggin expression
  noggin expression, factor alone: up-regulated
Gremlin expression
  gremlin expression, factor alone: only modestly increased
SOST expression [1]
  SOST expression, factor alone: enhanced; also recorded: up-regulated
[6]
  reversal of the inhibitory effect of sclerostin on alkaline phosphatase: partially reversed

B4: BMP-4: bone morphogenetic protein 4, purchased from R & D Systems (protein, UniProt P12644 293-408, looked up)
Bone morphogenetic protein 4: SPKHHSQRARKKNKNCRRHSLYVDFSDVGWNDWIVAPPGYQAFYCHGDCPFPLADHLNSTNHAIVQTLVNSVNSSIPKACCVPTELSAISMLYLDEYDKVVLKNYQEMVVEGCGCR
Noggin expression
  noggin expression, factor alone: up-regulated; also recorded: enhanced; also recorded: increase
Gremlin expression
  gremlin expression, factor alone: only modestly increased; also recorded: enhanced
SOST expression [1]
  SOST expression, factor alone: enhanced; also recorded: up-regulated; also recorded: significantly increased

B5: PTH: parathyroid hormone (PTH), tested at 10^−8 M (peptide, UniProt P01270 32-115, looked up)
Parathyroid hormone: SVSEIQLMHNLGKHLNSMERVEWLRKKLQDVHNFVALGAPLAPRDAGSQRPRKKEDNVLVESHEKSLGEADKADVNVLTKAKSQ
modifications: Parathyroid hormone
notes: parathyroid hormone (PTH), tested at 10^−8 M
SOST expression [1]
  SOST expression, factor alone: no effect
